ChEMBL document CHEMBL1137885, “P4 and P1' optimization of bicycloproline P2 bearing tetrapeptidyl alpha-ketoamides as HCV protease inhibitors” (Bioorg Med Chem Lett, 2004)

Legend:
[1] = tested on: Huh-7; experiment: Cytotoxic concentration against Huh-7 liver cells in XTT cytotoxicity assay; type: functional; conditions: Homo sapiens
[2] = target: Plasminogen (Homo sapiens, UniProt P00747); experiment: Binding affinity towards human plasmin
[3] = target: Trypsin (Homo sapiens, UniProt P07477+P07478+P35030); experiment: Binding affinity towards human trypsin; type: protein assay
[4] = tested on: Huh-7; experiment: Ratio of CC50 to that of IC50 value; type: functional, Homo sapiens
[5] = target: Prothrombin (Homo sapiens, UniProt P00734); experiment: Binding affinity towards human thrombin
[6] = target: Plasma kallikrein (Homo sapiens, UniProt P03952); experiment: Binding affinity towards human kallikrein
Sequence of Plasma kallikrein (P03952 20-390 limits assumed): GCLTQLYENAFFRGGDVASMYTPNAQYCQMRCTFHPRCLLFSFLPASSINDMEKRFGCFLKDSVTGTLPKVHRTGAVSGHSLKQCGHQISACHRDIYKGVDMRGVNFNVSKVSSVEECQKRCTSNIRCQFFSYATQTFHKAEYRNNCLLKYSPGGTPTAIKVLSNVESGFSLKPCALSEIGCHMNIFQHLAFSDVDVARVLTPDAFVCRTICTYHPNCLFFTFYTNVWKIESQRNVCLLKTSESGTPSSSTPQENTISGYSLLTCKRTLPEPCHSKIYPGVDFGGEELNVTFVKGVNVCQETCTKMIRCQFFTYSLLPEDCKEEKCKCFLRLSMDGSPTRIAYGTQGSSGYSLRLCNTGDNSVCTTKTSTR
Sequence of Plasma kallikrein (P03952 391-638 limits assumed): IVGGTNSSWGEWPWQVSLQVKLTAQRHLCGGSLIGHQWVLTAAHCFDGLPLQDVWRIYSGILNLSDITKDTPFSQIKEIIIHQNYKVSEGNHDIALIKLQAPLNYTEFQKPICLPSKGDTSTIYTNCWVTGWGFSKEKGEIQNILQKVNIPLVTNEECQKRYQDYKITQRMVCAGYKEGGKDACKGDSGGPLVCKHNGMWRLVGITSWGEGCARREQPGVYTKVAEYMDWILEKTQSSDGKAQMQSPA

[7] = target: Cathepsin B (Homo sapiens, UniProt P07858); experiment: Binding affinity towards human cathepsin B
[8] = target: Chymotrypsinogen B (Homo sapiens, UniProt P17538); experiment: Binding affinity towards human Chymotrypsinogen
Sequence of Chymotrypsinogen B (P17538 34-164 limits assumed, other chains not shown): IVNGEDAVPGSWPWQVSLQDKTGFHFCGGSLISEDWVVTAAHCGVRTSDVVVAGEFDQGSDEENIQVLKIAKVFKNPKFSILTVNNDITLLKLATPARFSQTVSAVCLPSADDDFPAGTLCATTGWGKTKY
Sequence of Chymotrypsinogen B (P17538 167-263 limits assumed, other chains not shown): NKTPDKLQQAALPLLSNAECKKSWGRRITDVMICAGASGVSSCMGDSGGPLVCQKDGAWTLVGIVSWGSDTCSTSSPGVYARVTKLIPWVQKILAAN

[9] = target: NS3 (Hepatitis C virus, UniProt A3EZJ3); experiment: Inhibition of HCV NS3 protease in the pNA based inhibition assay; parameters: species or system Hepacivirus hominis
Sequence of NS3 (A3EZJ3 whole entry): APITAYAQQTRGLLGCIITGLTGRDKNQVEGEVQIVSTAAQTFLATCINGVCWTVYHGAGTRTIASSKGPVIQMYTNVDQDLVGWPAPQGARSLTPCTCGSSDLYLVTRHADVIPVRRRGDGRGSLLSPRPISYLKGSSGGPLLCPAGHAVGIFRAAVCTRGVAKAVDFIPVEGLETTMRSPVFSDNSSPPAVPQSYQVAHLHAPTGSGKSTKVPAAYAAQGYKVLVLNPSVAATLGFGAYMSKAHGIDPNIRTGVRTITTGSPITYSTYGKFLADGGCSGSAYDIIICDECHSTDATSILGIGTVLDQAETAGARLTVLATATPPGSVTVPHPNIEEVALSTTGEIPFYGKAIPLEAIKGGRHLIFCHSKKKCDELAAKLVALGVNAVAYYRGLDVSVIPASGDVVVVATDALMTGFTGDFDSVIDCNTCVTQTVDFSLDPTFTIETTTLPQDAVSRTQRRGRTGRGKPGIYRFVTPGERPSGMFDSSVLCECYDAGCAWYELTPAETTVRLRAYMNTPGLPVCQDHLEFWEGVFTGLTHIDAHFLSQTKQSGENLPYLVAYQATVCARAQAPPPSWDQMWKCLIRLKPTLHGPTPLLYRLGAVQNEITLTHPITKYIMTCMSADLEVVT

[10] = tested on: Hepatitis C virus; experiment: Inhibitory concentration against hepatitis C virus in replicon assay; type: functional, organism-based, Hepacivirus hominis
[11] = Selectivity for HCV NS3 over human elastase
[12] = target: Procathepsin L (Homo sapiens, UniProt P07711); experiment: Selectivity for HCV NS3 over human cathepsin L
Sequence of Procathepsin L (P07711 whole entry): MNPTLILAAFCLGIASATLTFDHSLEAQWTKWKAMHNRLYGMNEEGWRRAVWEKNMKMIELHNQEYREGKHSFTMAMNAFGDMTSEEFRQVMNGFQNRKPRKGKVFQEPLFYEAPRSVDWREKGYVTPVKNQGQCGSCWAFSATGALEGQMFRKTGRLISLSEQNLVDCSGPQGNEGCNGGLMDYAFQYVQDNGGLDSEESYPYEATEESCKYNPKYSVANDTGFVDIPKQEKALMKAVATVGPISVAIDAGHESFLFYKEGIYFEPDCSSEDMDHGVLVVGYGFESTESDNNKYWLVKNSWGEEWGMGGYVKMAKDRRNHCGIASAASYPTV

Sequence of Plasminogen (P00747 97-580 limits assumed): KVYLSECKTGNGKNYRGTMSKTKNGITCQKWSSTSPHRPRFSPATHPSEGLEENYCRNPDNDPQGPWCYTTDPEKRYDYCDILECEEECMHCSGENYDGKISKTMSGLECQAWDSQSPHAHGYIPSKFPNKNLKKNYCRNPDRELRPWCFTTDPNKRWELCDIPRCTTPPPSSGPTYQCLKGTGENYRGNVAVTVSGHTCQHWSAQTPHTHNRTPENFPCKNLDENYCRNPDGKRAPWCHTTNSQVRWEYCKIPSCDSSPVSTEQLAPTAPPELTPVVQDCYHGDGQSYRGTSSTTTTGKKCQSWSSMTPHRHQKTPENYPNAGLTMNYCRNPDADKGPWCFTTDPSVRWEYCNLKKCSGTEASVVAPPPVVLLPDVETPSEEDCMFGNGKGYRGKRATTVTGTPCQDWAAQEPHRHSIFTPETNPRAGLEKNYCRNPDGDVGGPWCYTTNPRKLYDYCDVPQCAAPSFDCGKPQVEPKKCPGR
Sequence of Plasminogen (P00747 581-810 limits assumed): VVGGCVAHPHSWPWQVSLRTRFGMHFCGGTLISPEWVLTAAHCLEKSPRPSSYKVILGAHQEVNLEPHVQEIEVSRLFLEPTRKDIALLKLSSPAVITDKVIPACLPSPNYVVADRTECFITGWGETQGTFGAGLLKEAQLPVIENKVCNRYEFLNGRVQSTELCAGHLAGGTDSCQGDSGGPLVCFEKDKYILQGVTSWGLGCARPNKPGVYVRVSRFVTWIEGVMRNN

Row | Structure (SMILES) | CC50 [1] [µM] | Ki [2] [µM] | Ki [3] [µM] | Ratio [4] | Ki [5] [µM] | Ki [6] [µM] | Ki [7] [µM] | Ki [8] [µM] | Ki [9] [µM] | IC50 [10] [µM] | selectivity ratio [11] | selectivity ratio [12]
1 | CCC[C@H](NC(=O)[C@@H]1C2CCCC2CN1C(=O)[C@@H](NC(=O)[C@@H](NC(=O)c1cnccn1)[C@@H](C)CC)C(C)(C)C)C(=O)C(=O)NC1CC1 (stereo partly drawn) | > 100 | > 50 | > 50 | >69 | > 50 | > 50 | 10 | > 50 | 0.08 | 1.44 | 36 | 15
2 | CCCC(NC(=O)[C@@H]1C2CCCC2CN1C(=O)[C@@H](NC(=O)[C@H](CC1CCCCC1)NC(=O)c1cnccn1)C(C)(C)C)C(=O)C(=O)NC1CC1 (stereo partly drawn) | 45.5 |  |  | 16 |  |  |  |  | 0.65 | 2.81 |  | 
3 | CCCC(NC(=O)[C@@H]1[C@H]2CCC[C@H]2CN1C(=O)[C@@H](NC(=O)[C@@H](NC(=O)c1cnccn1)C1CCCCC1)C(C)(C)C)C(=O)C(=O)NC1CC1 (stereo partly drawn) | 86.5 | > 50 | > 50 | 157 | > 50 | > 50 | 3 | > 50 | 0.07 | 0.55 | 62 | 134
4 | CCCC(NC(=O)[C@@H]1C2CCCC2CN1C(=O)[C@@H](NC(=O)[C@@H](NC(=O)c1cnccn1)C1CCCCC1)C(C)(C)C)C(=O)C(=O)N[C@H](C)c1ccccc1 (stereo partly drawn) | 22 | > 50 | > 50 | 105 | > 50 | > 50 | 283 | > 50 | 0.09 | 0.21 | 29 | 51
5 | CCCC(NC(=O)[C@@H]1C2CCCC2CN1C(=O)[C@@H](NC(=O)[C@@H](NC(=O)c1cnccn1)C1CCCCC1)C(C)(C)C)C(=O)C(=O)N[C@H](C)CC (stereo partly drawn) | 69.2 | > 50 | > 50 | 65 | > 50 | > 50 | 13 | > 50 | 0.08 | 1.07 | 81 | 107
6 | CCC[C@H](NC(=O)[C@@H]1C2CCCC2CN1C(=O)[C@@H](NC(=O)[C@@H](NC(=O)c1cnccn1)c1ccccc1)C(C)(C)C)C(=O)C(=O)NC1CC1 (stereo partly drawn) | 58.6 |  |  | 21 |  |  |  |  | 0.65 | 2.81 |  | 
7 | CC(C)(C)[C@H](NC(=O)[C@@H](NC(=O)c1cnccn1)C1CCCCC1)C(=O)N1CC2CCCC2[C@H]1C(=O)NC(CC(F)F)C(=O)C(=O)NC1CC1 (stereo partly drawn) | > 100 | > 50 | > 50 | 250 | > 50 | > 50 | 40 | > 50 | 0.02 | 0.4 | 392 | 760
8 | CCCC(NC(=O)[C@@H]1[C@H]2CCC[C@H]2CN1C(=O)[C@@H](NC(=O)[C@@H](NC(=O)c1cnccn1)C(C)C)C(C)(C)C)C(=O)C(=O)NC1CC1 (stereo partly drawn) | > 100 | > 50 | > 50 |  | > 50 | > 50 | 1.6 | > 50 |  |  |  | 
9 | CCCC(NC(=O)[C@@H]1C2CCCC2CN1C(=O)[C@@H](NC(=O)[C@@H](NC(=O)c1cnccn1)C1CCCCC1)C(C)(C)C)C(=O)C(=O)NC[C@@H](C)CC (stereo partly drawn) | 31.7 |  |  | 32 |  |  |  |  | 0.25 | 1 |  | 
10 | CCC[C@H](NC(=O)[C@@H]1C2CCCC2CN1C(=O)[C@@H](NC(=O)[C@@H](NC(=O)c1cnccn1)[C@@H](C)OC)C(C)(C)C)C(=O)C(=O)NC1CC1 (stereo partly drawn) | > 100 | > 50 | > 50 | >22 | > 50 | > 50 | 7.3 | > 50 | 0.15 | 4.35 | 126 | 146
11 | CCC[C@H](NC(=O)[C@@H]1C2CCCC2CN1C(=O)[C@@H](NC(=O)[C@@H](NC(=O)c1cnccn1)C(C)(C)C)C(C)(C)C)C(=O)C(=O)NC1CC1 (stereo partly drawn) | > 100 | > 50 | > 50 | >77 | > 50 | > 50 | 3.9 | > 50 | 0.16 | 1.29 | 102 | 123
